From patent publication US20260206753A1, “HERBICIDAL DERIVATIVES” (SYNGENTA CROP PROTECTION AG, priority 2022, published 2026)

Tests used:
Type in all cases: in vivo
[1] = test system: Setaria faberi (SETFA); experiment: Pre-emergence herbicide test, glasshouse pots; conditions: 1000 g/ha, evaluated after 13 days
[2] = test system: Ipomoea hederacea (IPOHE); experiment: Pre-emergence herbicide test, glasshouse pots; conditions: 1000 g/ha, evaluated after 13 days
[3] = test system: Amaranthus palmeri (AMAPA); experiment: Pre-emergence herbicide test, glasshouse pots; conditions: 1000 g/ha, evaluated after 13 days
[4] = test system: Amaranthus retoflexus (AMARE); experiment: Pre-emergence herbicide test, glasshouse pots; conditions: 1000 g/ha, evaluated after 13 days
[5] = test system: Echinochloa crus-galli (ECHCG); experiment: Pre-emergence herbicide test, glasshouse pots; conditions: 1000 g/ha, evaluated after 13 days
[6] = test system: Zea mays (ZEAMX); experiment: Pre-emergence herbicide test, glasshouse pots; conditions: 1000 g/ha, evaluated after 13 days
[7] = test system: Amaranthus retoflexus (AMARE); experiment: Post-emergence herbicide test, glasshouse pots; conditions: sprayed after 8 days cultivation, 1000 g/ha, evaluated after 13 days
Procedure: (§1) Seeds of a variety of test species are sown in standard soil in pots (Setaria faberi (SETFA), Echinochloa crus-galli (ECHCG), Ipomoea hederacea (IPOHE), Amaranthus palmeri (AMAPA), Zea mays (ZEAMX), Amaranthus retoflexus (AMARE), Solanum nigrum (SOLNI), Lolium perenne (LOLPE), Abutilon theophrasti (ABUTH)). After 8 days cultivation under controlled conditions in a glasshouse (at 24° C./16° C., day/night; 14 hours light; 65% humidity), the plants are sprayed with an aqueous spray solution derived from the formulation of the technical active ingredient in acetone/water (50:50) solution containing 0.5% Tween 20 (polyoxyethelyene sorbitan monolaurate, CAS RN 9005-64-5). Compounds are applied at 1000 g/ha unless otherwise stated. The test plants are then grown in a glasshouse under controlled conditions in a glasshouse (at 24° C./16° C., day/night; 14 hours light; 65% humidity) and watered twice daily. After 13 days the test is evaluated for the percentage damage caused to the plant. The biological activities are shown in the following table on a five-point scale (5=81-100%; 4=61-80%; 3=41-60%; 2=21-40%; 1=0-20%).

[8] = test system: Zea mays (ZEAMX); experiment: Post-emergence herbicide test, glasshouse pots; conditions: sprayed after 8 days cultivation, 1000 g/ha, evaluated after 13 days
Procedure: as §1

[9] = test system: Echinochloa crus-galli (ECHCG); experiment: Post-emergence herbicide test, glasshouse pots; conditions: sprayed after 8 days cultivation, 1000 g/ha, evaluated after 13 days
Procedure: as §1

[10] = test system: Ipomoea hederacea (IPOHE); experiment: Post-emergence herbicide test, glasshouse pots; conditions: sprayed after 8 days cultivation, 1000 g/ha, evaluated after 13 days
Procedure: as §1

[11] = test system: Setaria faberi (SETFA); experiment: Post-emergence herbicide test, glasshouse pots; conditions: sprayed after 8 days cultivation, 1000 g/ha, evaluated after 13 days
Procedure: as §1

[12] = test system: Amaranthus palmeri (AMAPA); experiment: Post-emergence herbicide test, glasshouse pots; conditions: sprayed after 8 days cultivation, 1000 g/ha, evaluated after 13 days
Procedure: as §1

Row | SMILES | SEFTA, percentage damage caused to the plant (five-point scale) [1] | IPOHE, percentage damage caused to the plant (five-point scale) [2] | AMAPA, percentage damage caused to the plant (five-point scale) [3] | AMARE, percentage damage caused to the plant (five-point scale) [4] | ECHCG, percentage damage caused to the plant (five-point scale) [5] | ZEAMX, percentage damage caused to the plant (five-point scale) [6] | AMARE, percentage damage caused to the plant (five-point scale) [7] | ZEAMX, percentage damage caused to the plant (five-point scale) [8] | ECHCG, percentage damage caused to the plant (five-point scale) [9] | IPOHE, percentage damage caused to the plant (five-point scale) [10] | SEFTA, percentage damage caused to the plant (five-point scale) [11] | AMAPA, percentage damage caused to the plant (five-point scale) [12]
1 | CCn1cc(-c2ccc(Cl)cc2)c(=O)c(C(=O)O)c1-c1ccc(Cl)c(Cl)c1 [Compound 1, 5-(4-chlorophenyl)-2-(3,4-dichlorophenyl)-1-ethyl-4-oxo-pyridine-3-carboxylic acid] | 5 (5=81-100%) | 3 (3=41-60%) | 1 (1=0-20%) | 0 | 5 (5=81-100%) | 1 (1=0-20%) | 3 (3=41-60%) | 3 (3=41-60%) | 4 (4=61-80%) | 3 (3=41-60%) | 4 (4=61-80%) | 3 (3=41-60%)
2 | CCn1cc(-c2ccc(Cl)cc2F)c(=O)c(C(=O)O)c1-c1ccc(Cl)c(Cl)c1 [Compound 2, 5-(4-chloro-2-fluoro-phenyl)-2-(3,4-dichlorophenyl)-1-ethyl-4-oxo-pyridine-3-carboxylic acid] | 5 (5=81-100%) | 3 (3=41-60%) | 5 (5=81-100%) | 1 (1=0-20%) | 5 (5=81-100%) | 3 (3=41-60%) | 4 (4=61-80%) | 4 (4=61-80%) | 4 (4=61-80%) | 3 (3=41-60%) | 4 (4=61-80%) | 5 (5=81-100%)
3 | CCn1cc(-c2cc(OC(F)(F)F)ccc2F)c(=O)c(C(=O)O)c1-c1ccc(Cl)c(Cl)c1 [Compound 5, 2-(3,4-dichlorophenyl)-1-ethyl-5-[2-fluoro-5-(trifluoromethoxy)phenyl]-4-oxo-pyridine-3-carboxylic acid] | 5 (5=81-100%) | 4 (4=61-80%) | 4 (4=61-80%) | 3 (3=41-60%) | 5 (5=81-100%) | 4 (4=61-80%) | 4 (4=61-80%) | 4 (4=61-80%) | 4 (4=61-80%) | 4 (4=61-80%) | 4 (4=61-80%) | 4 (4=61-80%)
4 | CCn1cc(-c2cc(C(=O)OC(C)C)c(Cl)cc2F)c(=O)c(C(=O)O)c1-c1ccc(Cl)c(Cl)c1 [Compound 6, 5-(4-chloro-2-fluoro-5-isopropoxycarbonyl-phenyl)-2-(3,4-dichlorophenyl)-1-ethyl-4-oxo-pyridine-3-carboxylic acid] | 5 (5=81-100%) | 4 (4=61-80%) | 5 (5=81-100%) | 5 (5=81-100%) | 5 (5=81-100%) | 5 (5=81-100%) | 5 (5=81-100%) | 4 (4=61-80%) | 5 (5=81-100%) | 3 (3=41-60%) | 5 (5=81-100%) | 5 (5=81-100%)
5 | CCn1cc(-c2cc(OC(F)(F)F)ccc2Cl)c(=O)c(C(=O)O)c1-c1ccc(Cl)c(Cl)c1 [Compound 7, 5-[2-chloro-5-(trifluoromethoxy)phenyl]-2-(3,4-dichlorophenyl)-1-ethyl-4-oxo-pyridine-3-carboxylic acid] | 5 (5=81-100%) | 1 (1=0-20%) | 3 (3=41-60%) | 4 (4=61-80%) | 4 (4=61-80%) | 3 (3=41-60%) | 4 (4=61-80%) | 3 (3=41-60%) | 4 (4=61-80%) | 3 (3=41-60%) | 5 (5=81-100%) | 4 (4=61-80%)
6 | CCn1cc(-c2cc(C(=O)OC(C)C)ccc2F)c(=O)c(C(=O)O)c1-c1ccc(Cl)c(Cl)c1 [Compound 8, 2-(3,4-dichlorophenyl)-1-ethyl-5-(2-fluoro-5-isopropoxycarbonyl-phenyl)-4-oxo-pyridine-3-carboxylic acid] | 5 (5=81-100%) | 1 (1=0-20%) | 5 (5=81-100%) | 3 (3=41-60%) | 5 (5=81-100%) | 1 (1=0-20%) | 3 (3=41-60%) | 3 (3=41-60%) | 3 (3=41-60%) | 3 (3=41-60%) | 4 (4=61-80%) | 3 (3=41-60%)
7 | CCn1cc(-c2cccc(OC(F)(F)F)c2F)c(=O)c(C(=O)O)c1-c1ccc(Cl)c(Cl)c1 [Compound 11, 2-(3,4-dichlorophenyl)-1-ethyl-5-[2-fluoro-3-(trifluoromethoxy)phenyl]-4-oxo-pyridine-3-carboxylic acid] | 3 (3=41-60%) | 3 (3=41-60%) | 2 (2=21-40%) | 2 (2=21-40%) | 3 (3=41-60%) | 0 | 4 (4=61-80%) | 1 (1=0-20%) | 4 (4=61-80%) | 3 (3=41-60%) | 2 (2=21-40%) | 4 (4=61-80%)
